Common to all, as to assay type: functional
The species named for test [1] is Mus musculus. Description: Compound (125 p.p.m.) was tested for percent reduction of Nematospiroides dubius in mice.
The species entered for test [2] is Mus musculus. Description: Compound (250 p.p.m.) was tested for percent reduction of Nematospiroides dubius in mice.
The species entered for test [3] is Mus musculus. The experiment in a line: Compound (500 p.p.m.) was tested for percent reduction of Nematospiroides dubius in mice.
Test [4] is filed under the species Mus musculus. The experiment in a line: Compound (62.5 p.p.m.) was tested for percent reduction of Nematospiroides dubius in mice.
The species named for test [5] is Mus musculus. Description: Compound (1000 p.p.m.) was tested for percent reduction of Nematospiroides dubius in mice.

Regarding `c1ccc2[nH]c(-c3cscn3)nc2c1` [THIABENDAZOLE], the Reduction worked out at 0% in the test filed under Mus musculus [1]; 0% in the test filed under Mus musculus [2]; 47% in the test listed under Mus musculus [3]; 0% in the test listed under Mus musculus [4]; 87% in the test listed under Mus musculus [5].

Consider `COC(=O)Nc1nc2cc(Sc3ccccc3)ccc2[nH]1` [FENBENDAZOLE], for which the Reduction is on record as 74% in the test filed under Mus musculus [1], 97% in the test listed under Mus musculus [2], 100% in the test filed under Mus musculus [3] and 0% in the test filed under Mus musculus [4].

With `COC(=O)Nc1cn2cc([S+]([O-])c3ccccc3)ccc2n1` (stereo not given), the Reduction came out at 100% in the test listed under Mus musculus [1], 100% in the test filed under Mus musculus [2] and 90% in the test filed under Mus musculus [4].

Take `COC(=O)Nc1cn2ccc(Sc3ccccc3)cc2n1`: the Reduction in the test listed under Mus musculus [5] amounted to 0%.

Turning to `COC(=O)Nc1cn2ccccc2n1`, in the test listed under Mus musculus [5], the Reduction is listed as 54%.

In the case of `COC(=O)Nc1cn2cc(Sc3ccccc3)ccc2n1`, the Reduction came to 75% in the test listed under Mus musculus [1], 98% in the test listed under Mus musculus [2], 100% in the test listed under Mus musculus [3] and 20% in the test listed under Mus musculus [4].

Take `CC(C)OC(=O)Nc1ccc2[nH]c(-c3cscn3)nc2c1` [CAMBENDAZOLE]: the Reduction in the test listed under Mus musculus [1] is listed as 0%; in the test filed under Mus musculus [2] it was 20%; in the test listed under Mus musculus [3], 80%; in the test listed under Mus musculus [4], 0%; in the test filed under Mus musculus [5] it was 100%.

As to `COC(=O)Nc1cn2c(Sc3ccccc3)cccc2n1`, the Reduction in the test listed under Mus musculus [5] is on record as 0%.

For the compound `COC(=O)Nc1cn2cccc(Sc3ccccc3)c2n1`, in the test filed under Mus musculus [5], the Reduction amounted to 0%.

These data come from ChEMBL document CHEMBL1121877, “Isomeric phenylthioimidazo[1,2-alpha]pyridines as anthelmintics” (1981).
